# Measured values as given in patent publication US20130190289A1, “COMPOUNDS AND METHODS FOR THE TREATMENT OR PREVENTION OF FLAVIVIRUS INFECTIONS” (priority 2010, published 2013).
# Where two headings read alike, the source gives them in different places.
# How the values were obtained:
# [1] = test system: HCV sub-genomic replicon of genotype 1a in replicon cell line W11.8; test: microbe, parasite or virus in culture; type: cell-based, HCV genotype 1a; conditions: Hepatitis C virus
# Source text: This procedure below describes the HCV replicon assay using a Huh7 hepatoma cell line harboring a highly cell culture-adapted replicon (genotype 1b) (hereafter named cell line ET). The ET cells contained the highly cell culture-adapted replicon I389luc-ubi-neo/NS3-3′/5.1 construct that carried, in addition to the neomycin gene, an integrated copy to the firefly luciferase gene (Krieger, N; Lohmann, V; Bartenschlager, R. Enhancement of hepatitis C virus RNA replication by cell culture-adaptive mutations. J. Virol. 2001, 75, 4614-4624). A replicon cell line W11.8, containing the 1a genotype of HCV was also used. These two cell lines (genotype 1b and 1a) allowed measurement of RNA replication and translation by measuring luciferase activity (against genotype 1b) or by measuring the NS5A level using the ELISA assay (against genotype 1a). […] ET cell lines were maintained in cultures at a sub-confluent level (<85%). The culture media used for cell passaging consisted of DMEM (Gibco BRL Laboratories, Mississauga, ON, Canada) supplemented with 10% fetal bovine serum with 1% penicilin/streptomycin, 1% glutamine, 1% sodium pyruvate, 1% non-essential amino acids, and 180 µg/ml of G418 final concentration.
# Replicon cell lines W11.8 containing a sub-genomic replicon of genotype 1a was used for the HCV Replicon Cell-Based detection using the ELISA. The RNA replication in presence of different drug concentrations was indirectly measured in these cell lines by the level of NS5A protein content upon drug treatment for four days. The NS5A is a non-structural protein of HCV and is used as marker of HCV replication in this assay.
# For the treatment of the cells with the testing drug, Culture medium was removed from the 175 cm^2 T-flask by aspiration. Cell monolayer was rinsed with 10-20 mL of PBS 1× at room temperature. PBS was removed by aspiration. Cells were trypsinized using 3 mL of Trypsin (0.25%)/EDTA (0.1%) solution. Flasks were incubated at 37° C. (incubator) for 7 minutes. Complete medium (9 mL) without G418 is then added. Cell clumps were disrupted by pipetting up and down several times.
# The cell suspension was then transferred to a 50 mL Falcon polypropylene tube. Cells were then counted several times using the haemocytometer. Cells were diluted at 50,000 cells/mL with complete DMEM without G418, then transferred into a sterile reservoir. Using a multichannel pipet, approximately 5,000 viable cells (100 μL) were plated per well in a white opaque 96-well microtiter plate. After an incubation period of 2-4 hours at 37° C. in a 5% CO2 incubator, compounds were added at various concentrations.
# Drugs were resuspended in DMSO at a stock concentration of 100 mM or 10 mM. […] Then, drugs were diluted at twice the final concentration in the same medium (without G418) described earlier, in sterile 96-deep well plate and according to a particular template (see Appendix). One volume (100 μL) of each drug dilution was then added to each well that contains cells.
# Sixteen wells were used as control (0% inhibition) without drug. Eight wells were used as background control (100% inhibition) containing 2 μM (final concentration) of the reference compound. […] Values from 100% inhibited wells were averaged and used as the background value. Cells are further incubated for 4 days at 37° C. in a 5% CO2 incubator.
# For the measurement of NS5A protein content, following the incubation time of four days, the media was throwed into an appropriate waste container by inverting the plate. Any residual liquid was removed by tapping gently on absorbent paper several times. The plates were then washed once with 150 μL of PBS per well, and then incubated for 5 minutes at room temperature on a shaker (500 rpm).
# [2] = [3H]Thymidine incorporation assay (cell toxicity); conditions: human
# [3] = test system: HCV replicon (genotype 1b) in Huh7 cell line ET; test: microbe, parasite or virus in culture; type: cell-based, HCV genotype 1b; conditions: Hepatitis C virus
# [4] = W11.8, 96 h, read-out: HCV-Replicon-ELISA-1a IC50
# [5] = Huh-7, 96 h, read-out: HCV-Replicon (Luci-ET)-1b_IC50
# [6] = W11.8, read-out: HCV-Replicon-ELISA-1a IC50
# [7] = Huh-7, read-out: HCV-Replicon-(Luci-ET) 1b_IC50
Structure (SMILES),"IC50 [1, 4] [nM]",CC50 at 72 h [2] [nM],"IC50 [3, 5] [nM]","IC50 [1, 6] [nM]","IC50 [3, 7] [nM]"
"CC(C)N1CCCC[C@H](N(c2cc(C#CC(C)(C)C)sc2C(=O)O)C(=O)[C@H]2CC[C@H](C)CC2)C1=O [Compound 146, (S)-5-(3,3-Dimethylbut-1-ynyl)-3-((trans)-4-methyl-N-(1-isopropyl-2-oxoazepan-3-yl)cyclohexanecarboxamido)thiophene-2-carboxylic acid]",< 100,10000 to 100000,< 100,,
COC[C@@H](C(=O)N1CCCC1)N(C(=O)C1CCC(C)CC1)c1cc(C#CC(C)(C)C)sc1C(=O)O (stereo partly drawn) [Compound 35],,10000 to 100000,,< 100,< 100
COCC(C(=O)N(C)C)N(C(=O)C1CCC(C)CC1)c1cc(C#CC(C)C)sc1C(=O)O (stereo not drawn) [Compound 16],,> 100000,,< 100,< 100
CC[C@@H](C(=O)N1CC(OC)C1)N(c1cc(C#CC(C)(C)C)sc1C(=O)O)C(=O)[C@H]1CC[C@H](C)CC1 [Compound 79],,> 100000,,< 100,< 100
COC[C@@H](C(=O)N1CCOCC1)N(C(=O)C1CCC(C)CC1)c1cc(C#CC(C)(C)C)sc1C(=O)O (stereo partly drawn) [Compound 23],,> 100000,,< 100,< 100
"CC(C)(C)C#Cc1cc(N(CC(=O)N2CCOCC2)C(=O)c2ccc(Cl)cc2Cl)c(C(=O)O)s1 [Compound 124, 3-[(2,4-dichlorobenzoyl)-(2-morpholino-2-oxo-ethyl)amino]-5-(3,3-dimethylbut-1-ynyl)thiophene-2-carboxylic acid]",< 100,> 100000,< 100,,
"C[C@@H](C(=O)N(C)C)N(c1cc(C#CC(C)(C)C)sc1C(=O)O)C(=O)[C@H]1CC[C@H](C)CC1 [Compound 3, 5-(3,3-Dimethyl-but-1-ynyl)-3-[((S)-1-dimethylcarbamoyl-ethyl)-(trans-4-methyl-cyclohexanecarbonyl)-amino]-thiophene-2-carboxylic acid]",,> 100000,,< 100,< 100
"C[C@@H](CN(c1cc(C#CC(C)(C)C)sc1C(=O)O)C(=O)[C@H]1CC[C@H](C)CC1)C(=O)N1CCOCC1 [Compound 108, 5-(3,3-Dimethylbut-1-ynyl)-3-[(trans-4-methylcyclohexanecarbonyl)-[(2S)-2-methyl-3-morpholino-3-oxo-propyl]amino]thiophene-2-carboxylic acid]",,> 100000,,< 100,< 100
"COCC(C(=O)N(C)C)N(C(=O)C1CCC(C)CC1)c1cc(C#CC(C)(C)C)sc1C(=O)O (single isomer, unassigned) [Compound 21]",,> 100000,,< 100,< 100
CC[C@@H](C(=O)N1CCOCC1)N(c1cc(C#CC(C)(C)C)sc1C(=O)O)C(=O)[C@H]1CC[C@H](C)CC1 [Compound 12],,10000 to 100000,,< 100,< 100
"CC(C)CC#Cc1cc(N(CC(=O)N2CCOCC2)C(=O)[C@H]2CC[C@H](C)CC2)c(C(=O)O)s1 [Compound 130, 3-[(trans-4-methylcyclohexanecarbonyl)-(2-morpholino-2-oxo-ethyl)amino]-5-(4-methylpent-1-ynyl)thiophene-2-carboxylic acid]",100 to 1000,> 100000,100 to 1000,,
"CN1CCCC[C@H](N(C(=O)c2ccc(Cl)cc2Cl)c2cc(C#CC(C)(C)C)sc2C(=O)O)C1=O [Compound 137, (S)-5-(3,3-Dimethylbut-1-ynyl)-3-[(2,4-dichlorobenzoyl)-N-(1-methyl-2-oxoazepan-3-yl)amino]-thiophene-2-carboxylic acid]",< 100,> 100000,< 100,,
"CCN1CC[C@H](N(c2cc(C#CC(C)(C)C)sc2C(=O)O)C(=O)[C@H]2CC[C@H](C)CC2)C1=O [Compound 131, 5-(3,3-dimethylbut-1-ynyl)-3-[[(3S)-1-ethyl-2-oxo-pyrrolidin-3-yl]-(trans-4-methylcyclohexanecarbonyl)amino]thiophene-2-carboxylic acid]",< 100,> 100000,< 100,,
"COCCN1CC[C@H](N(c2cc(C#CC(C)(C)C)sc2C(=O)O)C(=O)[C@H]2CC[C@H](C)CC2)C1=O [Compound 133, 5-(3,3-Dimethylbut-1-ynyl)-3-[[(3S)-1-(2-methoxyethyl)-2-oxo-pyrrolidin-3-yl]-(trans-4-methylcyclohexanecarbonyl)amino]thiophene-2-carboxylic acid]",< 100,> 100000,< 100,,
"CN(C)C(=O)CN(C(=O)c1ccc(Cl)cc1Cl)c1cc(C#CC(C)(C)C)sc1C(=O)O [Compound 4, 3-[(2,4-Dichloro-benzoyl)-dimethylcarbamoylmethyl-amino]-5-(3,3-dimethyl-but-1-ynyl)-thiophene-2-carboxylic acid]",,10000 to 100000,,100 to 1000,< 100
CC[C@@H](C(=O)N1CCOC(C)C1)N(C(=O)C1CCC(C)CC1)c1cc(C#CC(C)(C)C)sc1C(=O)O (stereo partly drawn) [Compound 56],,10000 to 100000,,< 100,< 100
"CC[C@@H](C(=O)N1CCOCC1)N(C(=O)c1ccc(Cl)cc1Cl)c1cc(C#CC(C)(C)C)sc1C(=O)O [Compound 143, (S)-5-(3,3-Dimethylbut-1-ynyl)-3-[(2,4-dichlorobenzoyl)-[1-(morpholine-4-carbonyl)propyl]amino]-thiophene-2-carboxylic acid]",< 100,10000 to 100000,< 100,,
"CC1CCC(C(=O)N(c2cc(C#CC(C)(C)C)sc2C(=O)O)[C@H]2CCCCN(C)C2=O)CC1 (stereo partly drawn) [Compound 95, 5-(3,3-dimethylbut-1-yn-1-yl)-3-(4-methyl-N—((S)-1-methyl-2-oxoazepan-3-yl)cyclohexanecarboxamido)thiophene-2-carboxylic acid]",,10000 to 100000,,< 100,< 100
CC[C@@H](C(=O)N(C)C)N(c1cc(C#CC(C)(C)C)sc1C(=O)O)C(=O)[C@H]1CC[C@H](C)CC1 [Compound 13],,> 100000,,< 100,< 100
CC[C@@H](C(=O)N1CC2CC1CO2)N(c1cc(C#CC(C)(C)C)sc1C(=O)O)C(=O)[C@H]1CC[C@H](C)CC1 (stereo partly drawn) [Compound 78],,> 100000,,< 100,< 100
"CC1CCC(C(=O)N(c2cc(C#CC(C)(C)C)sc2C(=O)O)[C@H]2CCN(C)C2=O)CC1 (single isomer, unassigned) [Compound 91]",,> 100000,,< 100,< 100
"CC(C)(C)C#Cc1cc(N(C(=O)[C@H]2CC[C@H](C)CC2)[C@H]2CCN(CCO)C2=O)c(C(=O)O)s1 [Compound 139, 5-(3,3-Dimethylbut-1-ynyl)-3-[[(3S)-1-(2-hydroxyethyl)-2-oxo-pyrrolidin-3-yl]-(trans-4-methylcyclohexanecarbonyl)amino]thiophene-2-carboxylic acid]",< 100,> 100000,< 100,,
"CN1CCOC[C@H](N(c2cc(C#CC(C)(C)C)sc2C(=O)O)C(=O)[C@H]2CC[C@H](C)CC2)C1=O [Compound 136, (S)-5-(3,3-Dimethylbut-1-ynyl)-3-[(trans)-4-methyl-N-(4-methyl-5-oxo-1,4-oxazepan-6-yl)cyclohexanecarboxamido]thiophene-2-carboxylic acid]",< 100,> 100000,< 100,,
